# Test results as given in the supplement of paper PMC11061612.
# Experiments:
# Assay in all cases: combination Emax (second highest fraction inhibited in the dose matrix, 72 h); higher = more inhibition; extreme values may be limits of the assay
# [1] = system: BT-549 (Breast Carcinoma)
# In short: (§1)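 Cell lines grown in DMEM/F12 or RPMI with 10% FBS were plated in 1536-well plates and held 24 hours at 37°C, 5% CO2 before 72 hours of exposure to two-drug dose matrices, with DMSO typically at 0.2%. CellTiter-Glo 2.0 luminescence gave viability, which was converted to inhibition. Vehicle wells were set to 0 and blank wells to 1. Combination Emax is the second-highest inhibition in the matrix, and Bliss excess is the observed combination effect minus the expected EA + EB − EA·EB, where EA and EB are the single-agent effects.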
# [2] = system: KMOE-2 (Acute Myeloid Leukemia)
# In short: as §1
# [3] = system: AMO-1 (Plasma Cell Myeloma)
# In short: as §1
# [4] = system: HGC-27 (Gastric Carcinoma)
# In short: as §1
# [5] = system: OVCAR-4 (Ovarian Carcinoma)
# In short: as §1
# [6] = system: NCI-H727 (Other Solid Carcinomas)
# In short: as §1
# [7] = system: VA-ES-BJ (Other Solid Carcinomas)
# In short: as §1
# NB69 (Neuroblastoma) = system: NB69 (Neuroblastoma)
# In short: as §1
# YH-13 (Glioblastoma) = system: YH-13 (Glioblastoma)
# In short: as §1
# [8] = system: RF-48 (B-Cell Non-Hodgkin's Lymphoma)
# In short: as §1
# UACC-62 (Melanoma) = system: UACC-62 (Melanoma)
# In short: as §1
# [9] = system: PANC-04-03 (Pancreatic Carcinoma)
# In short: as §1
# PWR-1E (Non-Cancerous) = system: PWR-1E (Non-Cancerous)
# In short: as §1
# [10] = system: MLMA (Other Blood Carcinomas)
# In short: as §1
# [11] = system: MIA-PaCa-2 (Pancreatic Carcinoma)
# In short: as §1
# [12] = system: EoL-1-cell (Acute Myeloid Leukemia)
# In short: as §1
# [13] = system: Caov-4 (Ovarian Carcinoma)
# In short: as §1
# [14] = system: NCI-H1915 (Non-Small Cell Lung Carcinoma)
# In short: as §1
# [15] = system: NUGC-3 (Gastric Carcinoma)
# In short: as §1
# [16] = system: KARPAS-299 (T-Cell Non-Hodgkin's Lymphoma)
# In short: as §1
SMILES,combination Emax [1],combination Emax [2],combination Emax [3],combination Emax [4],combination Emax [5],combination Emax [6],combination Emax [7],combination Emax (NB69 (Neuroblastoma)),combination Emax (YH-13 (Glioblastoma)),combination Emax [8],combination Emax (UACC-62 (Melanoma)),combination Emax [9],combination Emax (PWR-1E (Non-Cancerous)),combination Emax [10],combination Emax [11],combination Emax [12],combination Emax [13],combination Emax [14],combination Emax [15],combination Emax [16]
"COc1cccc(OCCCN)c1-c1cc(Nc2cnc(C#N)cn2)n[nH]1 [Prexasertib] + C[C@@H]1COCCN1C2=NC(=NC(=C2)C3(CC3)[S@](=N)(=O)C)C4=C5C=CNC5=NC=C4 [AZD6738] (first compound max 1 µM, 7x7, partner max 10 µM)",0.698,0.948,0.965,0.895,0.832,0.72,0.782,0.91,0.793,0.71,0.697,0.555,0.973,0.954,0.682,0.996,0.965,0.612,0.762,0.985
"CCN(CCO)CCCOc1ccc2c(Nc3cc(CC(=O)Nc4cccc(F)c4)[nH]n3)ncnc2c1 [AZD2811] + C[C@@H]1COCCN1C2=NC(=NC(=C2)C3(CC3)[S@](=N)(=O)C)C4=C5C=CNC5=NC=C4 [AZD6738] (first compound max 1 µM, 7x7, partner max 10 µM)",0.487,0.615,0.859,0.802,0.688,0.559,0.696,0.815,0.54,0.462,0.519,0.545,0.908,0.684,0.644,1,0.784,0.325,0.697,0.936
"CN(C)CCCOc1ccc(-c2ccc3ncc4c(c3c2)n(C2CCOCC2)c(=O)n4C)cn1 [AZD0156] + CCN(CCO)CCCOc1ccc2c(Nc3cc(CC(=O)Nc4cccc(F)c4)[nH]n3)ncnc2c1 [AZD2811] (first compound max 1 µM, 7x7, partner max 1 µM)",0.221,0.21,0.312,0.866,0.148,0.155,0.245,0.588,0.348,0.305,0.188,0.0564,0.626,0.239,0.376,0.999,0.19,0.299,0.322,0.243
"CN(C)CCCOc1ccc(-c2ccc3ncc4c(c3c2)n(C2CCOCC2)c(=O)n4C)cn1 [AZD0156] + C=CCn1c(=O)c2cnc(Nc3ccc(N4CCN(C)CC4)cc3)nc2n1-c1cccc(C(C)(C)O)n1 [AZD1775] (first compound max 1 µM, partner max 1 µM)",0.613,0.854,0.827,0.499,0.55,0.333,0.381,0.877,0.352,0.602,0.391,0.471,0.678,0.908,0.595,0.996,0.753,0.563,0.552,0.918
"COc1cccc(OCCCN)c1-c1cc(Nc2cnc(C#N)cn2)n[nH]1 [Prexasertib] + C=CCn1c(=O)c2cnc(Nc3ccc(N4CCN(C)CC4)cc3)nc2n1-c1cccc(C(C)(C)O)n1 [AZD1775] (first compound max 1 µM, partner max 1 µM)",0.845,0.992,0.99,0.991,0.866,0.701,0.804,1,0.858,0.786,0.798,0.627,0.975,0.963,0.987,0.998,0.98,0.749,0.873,0.978
"Cc1c2c(nn1C)CSCc1cc(n(C)n1)CSc1cc(c3ccccc3c1)OCCCc1c(C(=O)O)n(C)c3c-2c(Cl)ccc13 [AZD5991] + C[C@@H](Nc1cc(F)cc(F)c1)c1cc(C(=O)N(C)C)cc2c(=O)cc(N3CCOCC3)oc12 [AZD8186] (first compound max 1 µM, 7x7, partner max 3 µM)",0.476,0.644,1,0.691,0.288,0.274,0.322,0.894,0.585,0.365,0.934,0.266,0.268,0.532,0.336,1,0.507,0.184,0.209,0.957
"COc1cccc(OCCCN)c1-c1cc(Nc2cnc(C#N)cn2)n[nH]1 [Prexasertib] + O=C(c1cc(Cc2n[nH]c(=O)c3ccccc23)ccc1F)N1CCN(C(=O)C2CC2)CC1 [Olaparib] (first compound max 1 µM, 7x7, partner max 10 µM)",0.654,0.974,0.982,0.91,0.743,0.389,0.837,0.896,0.804,0.726,0.743,0.49,0.71,0.954,0.797,1,0.976,0.665,0.726,1
"COc1nnc2ccc(N3CCC(c4ccc(OCCN5CCN(C)C(=O)[C@H]5C)cc4)CC3)nn12 [AZD5153] + Cc1c2c(nn1C)CSCc1cc(n(C)n1)CSc1cc(c3ccccc3c1)OCCCc1c(C(=O)O)n(C)c3c-2c(Cl)ccc13 [AZD5991] (first compound max 1 µM, 7x7, partner max 1 µM)",0.814,0.936,1,0.987,0.523,0.388,0.566,0.998,0.667,0.473,0.969,0.442,0.837,0.994,0.993,1,0.86,0.502,0.519,0.978
"CN(C)CCCOc1ccc(-c2ccc3ncc4c(c3c2)n(C2CCOCC2)c(=O)n4C)cn1 [AZD0156] + O=C(c1cc(Cc2n[nH]c(=O)c3ccccc23)ccc1F)N1CCN(C(=O)C2CC2)CC1 [Olaparib] (first compound max 3 µM, partner max 3 µM)",0.102,0.239,0.481,0.478,0.149,0.286,0.284,0.474,0.453,0.319,0.183,0.32,0.684,0.363,0.226,0.732,0.154,0.231,0.346,0.467
"CC1(C)CCC(CN2CCN(c3ccc(C(=O)NS(=O)(=O)c4ccc(NCC5CCOCC5)c([N+](=O)[O-])c4)c(Oc4cnc5[nH]ccc5c4)c3)CC2)=C(c2ccc(Cl)cc2)C1 [Venetoclax] + C1CN(CCC1(C(=O)N[C@@H](CCO)C2=CC=C(C=C2)Cl)N)C3=NC=NC4=C3C=CN4 [Capivasertib] (first compound max 1 µM, 7x7, partner max 3 µM)",0.239,0.581,0.76,0.814,0.1,0.482,0.264,0.426,0.259,0.364,0.392,0.199,0.203,0.866,0.213,1,0.282,0.141,0.227,0.837
"NC1(C(=O)N[C@@H](CCO)c2ccc(Cl)cc2)CCN(c2ncnc3[nH]ccc23)CC1 [Capivasertib] + CC(=O)c1c(C)c2cnc(Nc3ccc(N4CCNCC4)cn3)nc2n(C2CCCC2)c1=O [Palbociclib] (first compound max 10 µM, 7x7, partner max 10 µM)",0.391,0.541,0.743,0.874,0.168,0.507,0.458,0.726,0.609,0.42,0.492,0.261,0.535,0.515,0.451,0.858,0.377,0.491,0.592,0.479
"CC1(C)CCC(CN2CCN(c3ccc(C(=O)NS(=O)(=O)c4ccc(NCC5CCOCC5)c([N+](=O)[O-])c4)c(Oc4cnc5[nH]ccc5c4)c3)CC2)=C(c2ccc(Cl)cc2)C1 [Venetoclax] + Cc1cc2ncnn2cc1Nc1ncc2c(n1)n(C1CCOCC1)c(=O)n2C [AZD7648] (first compound max 1 µM, 7x7, partner max 10 µM)",0.258,0.427,0.73,0.485,0.19,0.25,0.233,0.523,0.3,0.321,0.221,0.286,0.164,0.86,0.269,0.996,0.263,0.641,0.409,0.837
"CC1(C)CCC(CN2CCN(c3ccc(C(=O)NS(=O)(=O)c4ccc(NCC5CCOCC5)c([N+](=O)[O-])c4)c(Oc4cnc5[nH]ccc5c4)c3)CC2)=C(c2ccc(Cl)cc2)C1 [Venetoclax] + C[C@@H]1COCCN1C2=NC(=NC(=C2)C3(CC3)[S@](=N)(=O)C)C4=C5C=CNC5=NC=C4 [AZD6738] (first compound max 1 µM, 7x7, partner max 10 µM)",0.52,0.73,0.904,0.8,0.684,0.616,0.813,0.884,0.5,0.562,0.481,0.443,0.932,0.909,0.666,1,0.751,0.538,0.711,0.954
